System: 947758-054-R-J2-PDC spheroid growth, percent test/control
Assay: Anticancer human tumor 947758-054-R-J2-PDC patient-derived colon adenocarcinoma cell line growth inhibition [CLK]
Conditions: spheroids with HUVEC and MSC; for IC50: curve of first compound; for viability, T/C: stronger effect = lower value
How it was run: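 Multi-cell-type spheroids combined patient-derived tumor cells with HUVEC endothelial cells and human mesenchymal stem cells. Paired agents were dosed in half-log steps down from about clinical Cmax, or from 10 microM where Cmax was unknown.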

[1] = second compound 0.0316 µM, first compound 0.0316 µM
[2] = second compound 0.0316 µM, first compound 0.1 µM
[3] = second compound 0.0316 µM, first compound 0.316 µM
[4] = second compound 0.0316 µM, first compound 1 µM
[5] = second compound 0.0316 µM, first compound 3.16 µM
[6] = second compound 0.0316 µM, first compound 10 µM
[7] = second compound 0.1 µM, first compound 0.0316 µM
[8] = second compound 0.1 µM, first compound 0.1 µM
[9] = second compound 0.1 µM, first compound 0.316 µM
[10] = second compound 0.1 µM, first compound 1 µM
[11] = second compound 0.1 µM, first compound 3.16 µM
[12] = second compound 0.1 µM, first compound 10 µM
[13] = second compound 0.316 µM, first compound 0.0316 µM
[14] = second compound 0.316 µM, first compound 0.1 µM
[15] = second compound 0.316 µM, first compound 0.316 µM
[16] = second compound 0.316 µM, first compound 1 µM
[17] = second compound 0.316 µM, first compound 3.16 µM
[18] = second compound 0.316 µM, first compound 10 µM
[19] = second compound 1 µM, first compound 0.0316 µM
[20] = second compound 1 µM, first compound 0.1 µM
[21] = second compound 1 µM, first compound 0.316 µM
[22] = second compound 1 µM, first compound 1 µM
[23] = second compound 1 µM, first compound 3.16 µM
[24] = second compound 1 µM, first compound 10 µM
[25] = second compound 3.16 µM, first compound 0.0316 µM
[26] = second compound 3.16 µM, first compound 0.1 µM
[27] = second compound 3.16 µM, first compound 0.316 µM
[28] = second compound 3.16 µM, first compound 1 µM
[29] = second compound 3.16 µM, first compound 3.16 µM
[30] = second compound 3.16 µM, first compound 10 µM
[31] = second compound 10 µM, first compound 0.0316 µM
[32] = second compound 10 µM, first compound 0.1 µM
[33] = second compound 10 µM, first compound 0.316 µM
[34] = second compound 10 µM, first compound 1 µM
[35] = second compound 10 µM, first compound 3.16 µM
[36] = second compound 10 µM, first compound 10 µM
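Further: spheroids exposed to compounds for one week before readout.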
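Wherever viability, T/C is given: 100% = DMSO vehicle control wells.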

For `CC(=O)O[C@H]1C(=O)[C@@]2(C)[C@H]([C@H](OC(=O)c3ccccc3)[C@]3(O)C[C@H](OC(=O)[C@H](O)[C@@H](NC(=O)c4ccccc4)c4ccccc4)C(C)=C1C3(C)C)[C@]1(OC(C)=O)CO[C@@H]1C[C@@H]2O` + CNC(=O)c1ccc(Nc2nc(OC3CCCC3)c3c(-c4ccc5nc(C)oc5c4)c[nH]c3n2)c(OC)c1, the IC50 (second compound 0.0316 µM) was under 31.6 nM, the IC50 (second compound 0.1 µM) was over 10000 nM and the IC50 (second compound 0.316 µM) was under 31.6 nM. For the same compound, the IC50 (second compound 1 µM) was over 10000 nM, the IC50 (second compound 3.16 µM) was under 31.6 nM and the IC50 (second compound 10 µM) was under 31.6 nM. For the same compound, the viability, T/C [1] was 27.7%, the viability, T/C [2] was 34.4% and the viability, T/C [3] was 31.7%. For the same compound, the viability, T/C [4] was 35.2%, the viability, T/C [5] was 40.6% and the viability, T/C [6] was 47.7%. The viability, T/C [7] was 61.2%, the viability, T/C [8] was 59% and the viability, T/C [9] was 65%. It also gave a viability, T/C [10] of 79.8%, a viability, T/C [11] of 79.1% and a viability, T/C [12] of 90.5%. For the same compound, the viability, T/C [13] was 47.7%, the viability, T/C [14] was 65.1% and the viability, T/C [15] was 74.4%. It also gave a viability, T/C [16] of 85.6%, a viability, T/C [17] of 88.3% and a viability, T/C [18] of 87.4%. For the same compound, the viability, T/C [19] was 41.1%, the viability, T/C [20] was 83.5% and the viability, T/C [21] was 59.1%. It also gave a viability, T/C [22] of 61.9%, a viability, T/C [23] of 82.8% and a viability, T/C [24] of 57.6%. For the same compound, the viability, T/C [25] was 36.9%, the viability, T/C [26] was 43.8% and the viability, T/C [27] was 70.2%. For the same compound, the viability, T/C [28] was 70.8%, the viability, T/C [29] was 67.9% and the viability, T/C [30] was 56.8%. It also gave a viability, T/C [31] of 35.2%, a viability, T/C [32] of 42.1% and a viability, T/C [33] of 56.7%. It also gave a viability, T/C [34] of 53.9%, a viability, T/C [35] of 56.8% and a viability, T/C [36] of 61.3%.

`COc1ccc([C@@H](O)c2cc(-c3ncnc4cc(N5CCOCC5)ccc34)c(F)cc2Cl)nn1` + CNC(=O)c1ccc(Nc2nc(OC3CCCC3)c3c(-c4ccc5nc(C)oc5c4)c[nH]c3n2)c(OC)c1 gave an IC50 (second compound 0.0316 µM) of 1900 nM, an IC50 (second compound 0.1 µM) of 899 nM and an IC50 (second compound 0.316 µM) of 874 nM. For the same compound, the IC50 (second compound 1 µM) was 116 nM, the IC50 (second compound 3.16 µM) was under 31.6 nM and the IC50 (second compound 10 µM) was under 31.6 nM. The viability, T/C [1] was 82.4%, the viability, T/C [2] was 63.7% and the viability, T/C [3] was 74.7%. It also gave a viability, T/C [4] of 49.5%, a viability, T/C [5] of 48.6% and a viability, T/C [6] of 32.8%. The viability, T/C [7] was 91.8%, the viability, T/C [8] was 81.3% and the viability, T/C [9] was 62.9%. The viability, T/C [10] was 50.4%, the viability, T/C [11] was 33.8% and the viability, T/C [12] was 25.9%. It also gave a viability, T/C [13] of 80.1%, a viability, T/C [14] of 66.8% and a viability, T/C [15] of 58.2%. For the same compound, the viability, T/C [16] was 53.4%, the viability, T/C [17] was 34.6% and the viability, T/C [18] was 17.7%. It also gave a viability, T/C [19] of 59%, a viability, T/C [20] of 51.9% and a viability, T/C [21] of 40%. The viability, T/C [22] was 31.6%, the viability, T/C [23] was 24.2% and the viability, T/C [24] was 6.15%. It also gave a viability, T/C [25] of 38%, a viability, T/C [26] of 32.4% and a viability, T/C [27] of 37.6%. The viability, T/C [28] was 24.1%, the viability, T/C [29] was 14.1% and the viability, T/C [30] was 7.87%. For the same compound, the viability, T/C [31] was 30.4%, the viability, T/C [32] was 31.9% and the viability, T/C [33] was 31%. The viability, T/C [34] was 21.5%, the viability, T/C [35] was 8.56% and the viability, T/C [36] was 5.76%.

Compound `COc1cccc2c1C(=O)c1c(O)c3c(c(O)c1C2=O)CC(O)(C(=O)CO)CC3OC1CC(N)C(O)C(C)O1` (stereo unspecified) + CNC(=O)c1ccc(Nc2nc(OC3CCCC3)c3c(-c4ccc5nc(C)oc5c4)c[nH]c3n2)c(OC)c1 has an IC50 (second compound 0.0316 µM) of 68.2 nM, an IC50 (second compound 0.1 µM) of 42.3 nM and an IC50 (second compound 0.316 µM) of under 31.6 nM. For the same compound, the IC50 (second compound 1 µM) was under 31.6 nM, the IC50 (second compound 3.16 µM) was under 31.6 nM and the IC50 (second compound 10 µM) was under 31.6 nM. For the same compound, the viability, T/C [1] was 59%, the viability, T/C [2] was 41.9% and the viability, T/C [3] was 32.6%. The viability, T/C [4] was 8.58%, the viability, T/C [5] was 0.41% and the viability, T/C [6] was 6.15%. For the same compound, the viability, T/C [7] was 52.9%, the viability, T/C [8] was 42.3% and the viability, T/C [9] was 23.6%. For the same compound, the viability, T/C [10] was 4.38%, the viability, T/C [11] was 0.29% and the viability, T/C [12] was 4.57%. For the same compound, the viability, T/C [13] was 45.4%, the viability, T/C [14] was 32.1% and the viability, T/C [15] was 12.9%. It also gave a viability, T/C [16] of 2.1%, a viability, T/C [17] of 0.25% and a viability, T/C [18] of 5.74%. The viability, T/C [19] was 28.7%, the viability, T/C [20] was 22.5% and the viability, T/C [21] was 5.4%. The viability, T/C [22] was 0.36%, the viability, T/C [23] was 0.24% and the viability, T/C [24] was 6.92%. The viability, T/C [25] was 28.1%, the viability, T/C [26] was 15.5% and the viability, T/C [27] was 5.36%. The viability, T/C [28] was 0.27%, the viability, T/C [29] was 0.27% and the viability, T/C [30] was 9.95%. For the same compound, the viability, T/C [31] was 23.3%, the viability, T/C [32] was 20.3% and the viability, T/C [33] was 4.23%. For the same compound, the viability, T/C [34] was 0.21%, the viability, T/C [35] was 1% and the viability, T/C [36] was 12.1%.
